Measured values from PubChem BioAssay (NCI).
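Step 1: Grow cells in 96-well plates. Step 2: Expose to compound for 48 hours at 5 concentrations. Step 3: Interpolate endpoints linearly; if unreached, use highest concentration. TGI denotes the concentration required for complete inhibition of growth.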

How the values were obtained:
Experiment in all cases: growth of human tumour cells (NCI), 48 h
786-0 renal = test system: 786-0 renal
A498 renal = test system: A498 renal
BT-549 breast = test system: BT-549 breast
COLO 205 colon = test system: COLO 205 colon
HT29 colon = test system: HT29 colon
IGROV1 ovarian = test system: IGROV1 ovarian
M14 melanoma = test system: M14 melanoma
MDA-MB-435 = test system: MDA-MB-435
MDA-N = test system: MDA-N
OVCAR-8 ovarian = test system: OVCAR-8 ovarian
RPMI-8226 leukemia = test system: RPMI-8226 leukemia
SK-MEL-2 melanoma = test system: SK-MEL-2 melanoma
SK-MEL-5 melanoma = test system: SK-MEL-5 melanoma
SK-OV-3 ovarian = test system: SK-OV-3 ovarian
SNB-75 CNS = test system: SNB-75 CNS
U251 CNS = test system: U251 CNS
UO-31 renal = test system: UO-31 renal

Row | Compound | TGI (786-0 renal) [µM] | TGI (A498 renal) [µM] | TGI (BT-549 breast) [µM] | TGI (COLO 205 colon) [µM] | TGI (HT29 colon) [µM] | TGI (IGROV1 ovarian) [µM] | TGI (M14 melanoma) [µM] | TGI (MDA-MB-435) [µM] | TGI (MDA-N) [µM] | TGI (OVCAR-8 ovarian) [µM] | TGI (RPMI-8226 leukemia) [µM] | TGI (SK-MEL-2 melanoma) [µM] | TGI (SK-MEL-5 melanoma) [µM] | TGI (SK-OV-3 ovarian) [µM] | TGI (SNB-75 CNS) [µM] | TGI (U251 CNS) [µM] | TGI (UO-31 renal) [µM]
1 | Nc1nc(Cl)cc(NCC2(CO)CCCC2)n1 | > 100 | > 100 | > 100 | > 100 | > 100 | > 100 | > 100 | > 100 | > 100 | > 100 | > 100 | > 100 | > 100 | > 100 | > 100 | > 100 | > 100
2 | C=CC[C@]12C=C(OC)[C@@H](O)[C@](OC)(C(c3cc(OC)c4c(c3)OCO4)[C@H]1C)[C@H]2OC(C)=O (stereo partly drawn) | > 100 | > 100 | > 100 | > 100 | > 100 | > 100 | > 100 | > 100 | > 100 | > 100 | > 100 | > 100 | > 100 | > 100 | > 100 | > 100 | > 100
3 | O=C1/C(=C/c2ccc(Cl)cc2)CSc2ccccc21 | 39.3 | > 100 | 78.6 | 64.3 | 49.6 | 66.4 | > 100 | 20.7 | 61.7 | > 100 | 5.29 | 41.8 | 46 | > 100 | 72.7 | 24.6 | 36.1
4 | CCOC(=O)NC(Nc1cccc(C(F)(F)F)c1)(C(F)(F)F)C(F)(F)F | > 100 | > 100 | > 100 | > 100 | > 100 | > 100 | > 100 | > 100 | > 100 | > 100 | > 100 | > 100 | > 100 | > 100 | > 100 | > 100 | > 100
5 | C=C([C@@]1(O)C[C@H]2[C@H](CCC2(OC)OC)[C@@H]2c3ccccc3O[C@@H]21)[Si](C)(C)C | > 100 | > 100 | > 100 | > 100 | > 100 | > 100 | > 100 | > 100 | > 100 | > 100 | > 100 | > 100 | > 100 | > 100 | > 100 | > 100 | > 100
6 | C[N+]12CCCCC1C(CN1C(=O)Cc3c4ccccc4c(c4ccccc34)CC1=O)CCC2 (stereo not drawn) | > 100 | > 100 | > 100 | > 100 | > 100 | > 100 | > 100 | > 100 | > 100 | > 100 | > 100 | > 100 | > 100 | > 100 | > 100 | > 100 | > 100
7 | N#Cc1c(Cl)cc(Cl)n2c1nc1ccccc12 | 7.63 | 47.3 | 15.5 | 21.2 | 23.6 | 38.7 | 24.5 | 35.3 | 26.3 | 35 | 58.9 | 33.4 | 32.7 | 31.2 | 32.7 | 55.5 | 13.5
8 | N#CC1=C(N)N(c2ccccc2)C(c2ccccc2)C1(C#N)C#N (stereo not drawn) | 32.6 | 33.6 | 37 | 36.1 | 30.2 | 32 | 44.9 | 35.6 | 41 | 33.5 | 37 | 42.9 | 26.9 | 78.4 | 42 | 32.4 | 34.8
9 | CC12CCC(O)CC1CCC1C2CCC2(C)C(C(=O)CC(O)C(F)(F)F)CCC12 (stereo not drawn) | 21.6 | 40.7 | > 100 | 33.1 | 19.6 | > 100 | > 100 | > 100 | > 100 | > 100 | 26.6 | > 100 | > 100 | 79.5 | 81.1 | > 100 | 11.1
10 | COc1ccc(NS(=O)(=O)c2ccc(NC(NC(=O)CC(C)C)(C(F)(F)F)C(F)(F)F)cc2)nn1 | > 100 | > 100 | > 100 | > 100 | > 100 | > 100 | > 100 | > 100 | > 100 | > 100 | > 100 | > 100 | > 100 | > 100 | > 100 | > 100 | > 100
11 | Oc1cccc(-c2nc3cc(F)ccc3s2)c1 | 39 | 27.6 | 45.1 | 30 | 31.7 | 33.1 | 37.8 | 58.5 | 61.8 | 51.2 | 54.3 | 43.2 | 25 | 70 | 39.4 | 76.7 | 52.5
12 | CCC1(C)C=Cc2c(cc(O)c3c(=O)c4ccccc4n(C)c23)O1 (stereo not drawn) | > 10 | > 10 | > 10 | > 10 | > 10 | > 10 | > 10 | > 10 | > 10 | > 10 | > 10 | > 10 | > 10 | > 10 | > 10 | > 10 | > 10
13 | CC(C)(Cl)C(Br)CCC(=CCCl)CBr (mixture of isomers) | 3.77 | 9.22 | 6.24 | 5.15 | 3.55 | 6.73 | 4.05 | 3.71 | 3.28 | 5.26 | 4.38 | 9.93 | 11.9 | 31.2 | 8.18 | 5.59 | 3.42
14 | CCCCN=C(c1ccccc1)N1CCOCC1 | > 100 | > 100 | > 100 | > 100 | > 100 | > 100 | > 100 | > 100 | > 100 | > 100 | > 100 | > 100 | > 100 | > 100 | 83.5 | > 100 | > 100
